Measured values reported in patent publication US9255100B2 (BAYER INTELLECTUAL PROPERTY GMBH, priority 2010, dated 2016).

Target: T1, N-terminally GST-tagged human full length recombinant Mps-1 kinase (Homo sapiens, UniProt P33981)
T1 construct: N-terminally GST-tagged human full length recombinant Mps-1 kinase; purchased Invitrogen, Karslruhe, Germany PV4071
T1 sequence (P33981 1-857): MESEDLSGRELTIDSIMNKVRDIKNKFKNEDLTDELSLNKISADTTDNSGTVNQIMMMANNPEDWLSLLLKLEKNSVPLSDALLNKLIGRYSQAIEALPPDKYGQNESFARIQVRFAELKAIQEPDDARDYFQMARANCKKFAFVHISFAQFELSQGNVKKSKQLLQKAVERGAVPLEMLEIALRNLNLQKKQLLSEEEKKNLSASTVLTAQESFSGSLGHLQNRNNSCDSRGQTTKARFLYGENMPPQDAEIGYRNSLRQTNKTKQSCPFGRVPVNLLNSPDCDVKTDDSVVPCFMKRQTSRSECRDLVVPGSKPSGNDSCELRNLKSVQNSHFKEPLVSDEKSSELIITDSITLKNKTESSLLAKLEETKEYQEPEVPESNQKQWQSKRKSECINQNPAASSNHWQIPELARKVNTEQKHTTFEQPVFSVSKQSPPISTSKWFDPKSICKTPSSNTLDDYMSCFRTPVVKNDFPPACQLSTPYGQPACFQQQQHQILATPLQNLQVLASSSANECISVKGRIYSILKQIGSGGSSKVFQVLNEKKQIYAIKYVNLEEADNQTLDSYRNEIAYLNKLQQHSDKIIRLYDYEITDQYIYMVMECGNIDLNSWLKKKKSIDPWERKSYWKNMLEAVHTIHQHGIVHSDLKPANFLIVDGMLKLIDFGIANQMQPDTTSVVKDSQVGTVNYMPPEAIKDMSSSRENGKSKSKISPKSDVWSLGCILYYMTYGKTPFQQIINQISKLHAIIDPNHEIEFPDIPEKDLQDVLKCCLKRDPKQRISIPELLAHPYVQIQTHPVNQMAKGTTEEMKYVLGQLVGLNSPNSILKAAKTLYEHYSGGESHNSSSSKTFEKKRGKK
Assay: Mps-1 kinase assay (TR-FRET)
Assay type: biochemical
Settings: Mps1 IC50 [nM], 10 μM ATP, 1 μM peptide substrate, 60 min at 22° C.
Procedure, shortened: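 Inhibition of Mps-1 (N-terminal GST fusion, full length) toward a biotinylated peptide is read as Eu-to-XLent TR-FRET. Enzyme level, around 1 nM final, follows lot activity.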

SMILES | IC50 [nM]
Cc1cc(-c2cnc3c(NCCN4CCOCC4)cc(N(C)c4ccccc4O)nn23)ccc1C(=O)NC1CC1 [Example 539, N-cyclopropyl-4-(6-[(2-hydroxy-phenyl)(methyl)amino]-8-{[2-(morpholin-4-yl)ethyl]amino}imidazo[1,2-b]pyridazin-3-yl)-2-methylbenzamide] | 0.2
Cc1ccccc1-c1cc(NCC(C)C)c2ncc(-c3ccc(C(=O)NC4CC4)cc3)n2n1 [Example 110] | 1.3
Cc1cc(-c2cnc3c(NCC(C)C)cc(Cl)nn23)ccc1C(=O)NC1CC1 [Example 99, 4-{6-Chloro-8-[(2-methylpropyl)amino]imidazo[1,2-b]pyridazin-3-yl}-N-cyclopropyl-2-methylbenzamide] | 29.5
Cc1cc(-c2cnc3c(NCC(C)(C)O)cc(Sc4cnccn4)nn23)ccc1C(=O)NC1CC1 [Example 412, N-cyclopropyl-4-{8-[(2-hydroxy-2-methylpropyl)amino]-6-(pyrazin-2-ylsulfanyl)imidazo[1,2-b]pyridazin-3-yl}-2-methylbenzamide] | 19.2
CCN(CC)CCSc1cc(NCCC(F)(F)F)c2ncc(-c3ccc(C(=O)NC4CC4)c(C)c3)n2n1 [Example 210, N-cyclopropyl-4-(6-{[2-(diethylamino)ethyl]sulfanyl}-8-[(3,3,3-trifluoropropyl)amino]imidazo[1,2-b]pyridazin-3-yl)-2-methylbenzamide] | 6.9
Cc1cc(-c2cnc3c(NCCC(F)(F)F)cc(Nc4cccc(Cl)c4)nn23)ccc1C(=O)NC1CC1 [Example 379, 4-{6-[(3-chlorophenyl)amino]-8-[(3,3,3-trifluoropropyl)amino]imidazo[1,2-b]pyridazin-3-yl}-N-cyclopropyl-2-methylbenzamide] | 0.2
Cc1cc(-c2cnc3c(NCCCC(F)(F)F)cc(Nc4cccc(F)c4F)nn23)ccc1C(=O)NC1CC1 [Example 450, N-cyclopropyl-4-{6-[(2,3-difluorophenyl)amino]-8-[(4,4,4-trifluorobutyl)amino]imidazo[1,2-b]pyridazin-3-yl}-2-methylbenzamide] | 0.3
Cc1cc(-c2cnc3c(NCCc4nnn[nH]4)cc(Oc4cccc(F)c4)nn23)ccc1C(=O)NC1CC1 [Example 511, N-cyclopropyl-4-[6-(3-fluoro-phenoxy)-8-{[2-(1H-tetrazol-5-yl)ethyl]amino}imidazo[1,2-b]pyridazin-3-yl]-2-methyl-benzamide] | 0.3
Cc1cc(-c2cnc3c(NCC4CCN(C)CC4)cc(Oc4cccc(F)c4)nn23)ccc1C(=O)NC1CC1 [Example 311, N-cyclopropyl-4-[6-(3-fluorophenoxy)-8-{[(1-methylpiperidin-4-yl)methyl]amino}imidazo[1,2-b]pyridazin-3-yl]-2-methyl-benzamide] | 0.2
COc1cc(F)ccc1Nc1cc(NCC(C)(C)O)c2ncc(-c3ccc(C(=O)NC4CC4)c(C)c3)n2n1 [Example 432, N-cyclopropyl-4-{6-[(4-fluoro-2-methoxyphenyl)amino]-8-[(2-hydroxy-2-methylpropyl)amino]imidazo[1,2-b]pyridazin-3-yl}-2-methylbenzamide] | 4.6
Cc1cc(-c2cnc3c(NCC4CCS(=O)(=O)CC4)cc(Oc4ccccc4F)nn23)ccc1C(=O)NC1CC1 [Example 297, N-cyclopropyl-4-[8-{[(1,1-dioxidotetrahydro-2H-thiopyran-4-yl)methyl]amino}-6-(2-fluorophenoxy)imidazo[1,2-b]pyridazin-3-yl]-2-methylbenzamide] | 0.1
Cc1ccc(Cl)cc1Nc1cc(NCC(C)(C)O)c2ncc(-c3ccc(C(=O)NC4CC4)c(C)c3)n2n1 [Example 404, 4-{6-[(5-chloro-2-methylphenyl)amino]-8-[(2-hydroxy-2-methylpropyl)amino]imidazo[1,2-b]pyridazin-3-yl}-N-cyclopropyl-2-methylbenzamide] | 0.3
CC(C)CNc1cc(-c2ccncc2)nn2c(-c3ccc(-c4cnc(C5CC5)[nH]4)cc3)cnc12 [Example 3, 3-[4-(2-Cyclopropyl-1H-imidazol-5-yl)phenyl]-N-isobutyl-6-(pyridin-4-yl) imidazo[1,2-b]pyridazin-8-amine] | 13.7
Cc1cc(-c2cnc3c(NCC(O)C(F)(F)F)cc(Oc4cccc(F)c4)nn23)ccc1C(=O)NC1CC1 (stereo not drawn) [Example 486, N-cyclopropyl-4-{6-(3-fluorophenoxy)-8-[(3,3,3-trifluoro-2-hydroxypropyl)amino]imidazo[1,2-b]pyridazin-3-yl}-2-methylbenzamide] | 0.1
Cc1cc(-c2cnc3c(NCC4CCSCC4)cc(Oc4ccccc4F)nn23)ccc1C(=O)NC1CC1 [Example 283, N-cyclopropyl-4-{6-(2-fluorophenoxy)-8-[(tetrahydro-2H-thiopyran-4-ylmethyl)amino]imidazo[1,2-b]pyridazin-3-yl}-2-methylbenzamide] | 0.3
COc1cc(C(=O)NC2CC2)ccc1-c1cnc2c(NCCC(F)(F)F)cc(-c3ccnn3C)nn12 [Example 53, N-cyclopropyl-3-methoxy-4-{6-(1-methyl-1H-pyrazol-5-yl)-8-[(3,3,3-trifluoropropyl)amino]imidazo[1,2-b]pyridazin-3-yl}benzamide] | 7.1
CC(C)CNc1cc(-c2cccc(O)c2)nn2c(-c3ccc(C(=O)NC4CC4)cc3)cnc12 [Example 140, N-cyclopropyl-4-{6-(3-hydroxyphenyl)-8-[(2-methylpropyl)amino]imidazo[1,2-b]pyridazin-3-yl}benzamide] | 3.9
Cc1cc(-c2cnc3c(NCC4CCS(=O)(=O)CC4)cc(Oc4cccc(F)c4)nn23)ccc1C(=O)NC1CC1 [Example 298A, N-cyclopropyl-4-[8-{[(1,1-dioxidotetrahydro-2H-thiopyran-4-yl)methyl]amino}-6-(3-fluorophenoxy)imidazo[1,2-b]pyridazin-3-yl]-2-methylbenzamide] | < 0.1
CC(C)(O)CNc1cc(Sc2ccccc2)nn2c(-c3ccc(C(=O)NC4CC4)cc3O)cnc12 [Example 51B, N-cyclopropyl-3-hydroxy-4-{8-[(2-hydroxy-2-methylpropyl)amino]-6-(phenylsulfanyl)imidazo[1,2-b]pyridazin-3-yl}benzamide] | 1.2
CC(C)CNc1cc(-c2ccc3[nH]c(=O)[nH]c3c2)nn2c(-c3ccc(C(=O)NC4CC4)cc3)cnc12 [Example 151, N-cyclopropyl-4-{8-[(2-methylpropyl)amino]-6-(2-oxo-2,3-dihydro-1H-benzimidazol-5-yl)imidazo[1,2-b]pyridazin-3-yl}benzamide] | 3.1
C/C=C(\C)c1cc(NCC(C)(C)O)c2ncc(-c3ccc(C(=O)NC4CC4)c(C)c3)n2n1 [Example 25, 4-{6-[(2E)-But-2-en-2-yl]-8-[(2-hydroxy-2-methylpropyl)amino]imidazo[1,2-b]pyridazin-3-yl}-N-cyclopropyl-2-methylbenzamide] | 13.1
Cc1cc(-c2cnc3c(NCC(C)(C)N)cc(Sc4cccc(F)c4)nn23)ccc1C(=O)NC1CC1 [Example 78, 4-{8-[(2-Amino-2-methylpropyl)amino]-6-[(3-fluorophenyl)sulfanyl]imidazo[1,2-b]pyridazin-3-yl}-N-cyclopropyl-2-methylbenzamide] | 0.2
Cc1cc(-c2cnc3c(NCC(C)(C)O)cc(Sc4cccc(OC(C)C)c4)nn23)ccc1C(=O)NC1CC1 [Example 271] | 1
C=Cc1cc(NCCC(F)(F)F)c2ncc(-c3ccc(C(=O)NC4CC4)c(C)c3)n2n1 [Example 41, N-cyclopropyl-2-methyl-4-{8-[(3,3,3-trifluoropropyl)amino]-6-vinylimidazo[1,2-b]pyridazin-3-yl}benzamide] | 7.1
CNC(=O)c1ccc(-c2cnc3c(NCc4cccs4)cc(Cl)nn23)cc1Cl [Example 186, 2-Chloro-4-{6-chloro-8-[(thiophen-2-ylmethyl)amino]imidazo[1,2-b]pyridazin-3-yl}-N-methylbenzamide] | 338
Cc1cc(-c2cnc3c(NCC(C)(C)O)cc(C4=CCNCC4)nn23)ccc1C(=O)NC1CC1 [Example 42, N-cyclopropyl-4-{8-[(2-hydroxy-2-methylpropyl)amino]-6-(1,2,3,6-tetrahydropyridin-4-yl)imidazo[1,2-b]pyridazin-3-yl}-2-methylbenzamide] | 7.8
Cc1cc(-c2cnc3c(NCCC(F)(F)F)cc(Oc4ccc(OC(C)C)cc4)nn23)ccc1C(=O)NC1CC1 [Example 257, N-cyclopropyl-4-{6-(4-isopropoxyphenoxy)-8-[(3,3,3-trifluoropropyl)amino]imidazo[1,2-b]pyridazin-3-yl}-2-methylbenzamide] | 0.4
